Assay [1] addresses T1, Tyrosine-protein phosphatase non-receptor type 1 (Homo sapiens) (UniProt P18031).
T1 sequence (whole entry): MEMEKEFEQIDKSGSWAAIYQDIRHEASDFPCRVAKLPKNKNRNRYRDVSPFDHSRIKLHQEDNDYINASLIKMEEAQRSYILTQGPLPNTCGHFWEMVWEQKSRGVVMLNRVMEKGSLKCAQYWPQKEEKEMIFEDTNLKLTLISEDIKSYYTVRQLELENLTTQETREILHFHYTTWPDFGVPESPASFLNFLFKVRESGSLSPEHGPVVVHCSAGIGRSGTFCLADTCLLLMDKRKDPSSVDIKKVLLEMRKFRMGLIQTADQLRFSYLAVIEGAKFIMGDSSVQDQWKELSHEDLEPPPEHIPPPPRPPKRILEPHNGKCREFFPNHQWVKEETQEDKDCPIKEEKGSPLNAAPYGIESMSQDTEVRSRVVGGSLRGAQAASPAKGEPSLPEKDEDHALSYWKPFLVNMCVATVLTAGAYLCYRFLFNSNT
The experiment in a line: Inhibition of PTP1B (unknown origin) at 5 ug/ml.

Assay [2] deals with T2, M-phase inducer phosphatase 2 (Homo sapiens) (UniProt P30305).
T2 sequence (whole entry): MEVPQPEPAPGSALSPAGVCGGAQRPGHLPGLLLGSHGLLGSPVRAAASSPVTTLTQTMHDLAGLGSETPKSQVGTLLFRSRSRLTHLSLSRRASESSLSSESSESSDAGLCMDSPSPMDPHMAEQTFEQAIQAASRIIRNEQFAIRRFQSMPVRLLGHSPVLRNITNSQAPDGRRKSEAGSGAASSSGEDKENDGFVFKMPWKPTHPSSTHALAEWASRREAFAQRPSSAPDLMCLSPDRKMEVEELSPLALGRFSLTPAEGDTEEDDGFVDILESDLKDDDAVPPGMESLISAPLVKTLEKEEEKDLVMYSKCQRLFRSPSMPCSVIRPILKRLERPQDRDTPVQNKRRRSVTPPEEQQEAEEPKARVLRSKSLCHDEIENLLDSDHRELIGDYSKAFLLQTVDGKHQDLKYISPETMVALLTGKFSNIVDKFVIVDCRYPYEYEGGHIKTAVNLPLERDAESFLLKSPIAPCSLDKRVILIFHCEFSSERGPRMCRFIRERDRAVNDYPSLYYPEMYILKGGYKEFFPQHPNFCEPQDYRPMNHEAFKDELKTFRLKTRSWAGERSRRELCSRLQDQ
The experiment in a line: Inhibition of Cdc25B (unknown origin) at 5 ug/ml.

The target of assay [3] is T3, M-phase inducer phosphatase 2 (Homo sapiens, UniProt P30305).
T3 sequence (P30305 whole entry): T2 sequence (whole entry)
Put plainly: Inhibition of Cdc25B (unknown origin).

In assay [4] the target is T4, Tyrosine-protein phosphatase non-receptor type 11 (Homo sapiens, UniProt Q06124).
T4 sequence (Q06124 whole entry): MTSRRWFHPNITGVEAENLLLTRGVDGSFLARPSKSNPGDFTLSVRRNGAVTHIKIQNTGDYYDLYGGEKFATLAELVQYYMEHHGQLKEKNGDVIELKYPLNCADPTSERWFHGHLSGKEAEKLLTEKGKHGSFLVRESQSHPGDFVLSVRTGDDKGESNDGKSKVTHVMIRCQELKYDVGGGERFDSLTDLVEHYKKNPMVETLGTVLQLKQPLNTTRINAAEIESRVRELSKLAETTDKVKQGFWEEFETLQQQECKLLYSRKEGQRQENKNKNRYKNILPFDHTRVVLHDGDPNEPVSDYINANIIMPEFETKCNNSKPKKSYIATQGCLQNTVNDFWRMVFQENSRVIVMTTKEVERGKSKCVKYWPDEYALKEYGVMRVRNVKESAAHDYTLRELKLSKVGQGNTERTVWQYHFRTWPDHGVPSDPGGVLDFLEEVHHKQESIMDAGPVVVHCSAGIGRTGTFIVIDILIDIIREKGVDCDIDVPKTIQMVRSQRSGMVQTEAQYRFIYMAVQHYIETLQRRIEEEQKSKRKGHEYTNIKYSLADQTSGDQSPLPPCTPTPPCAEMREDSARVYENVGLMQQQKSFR
The experiment in a line: Inhibition of SHP2 (unknown origin).

Assay [5] deals with T1, Tyrosine-protein phosphatase non-receptor type 1 (Homo sapiens). The experiment in a line: Mixed inhibition of PTP1B (unknown origin) by Lineweaver-Burk plot.
The target of assay [6] is T5, Tyrosine-protein phosphatase non-receptor type 2 (Homo sapiens, UniProt P17706).
T5 sequence (P17706 whole entry): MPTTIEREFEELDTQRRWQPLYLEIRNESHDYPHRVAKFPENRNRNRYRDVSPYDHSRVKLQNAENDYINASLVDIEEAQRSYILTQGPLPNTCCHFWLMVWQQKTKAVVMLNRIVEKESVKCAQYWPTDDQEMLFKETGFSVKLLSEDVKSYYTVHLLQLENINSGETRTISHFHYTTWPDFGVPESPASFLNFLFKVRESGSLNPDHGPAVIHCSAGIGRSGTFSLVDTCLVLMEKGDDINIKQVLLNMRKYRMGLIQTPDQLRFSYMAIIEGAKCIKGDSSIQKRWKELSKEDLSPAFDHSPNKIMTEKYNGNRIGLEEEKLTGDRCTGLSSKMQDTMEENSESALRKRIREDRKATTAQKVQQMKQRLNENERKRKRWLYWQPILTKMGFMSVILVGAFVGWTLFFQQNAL
Put plainly: Inhibition of TCPTP (unknown origin).

In assay [7] the target is Receptor-type tyrosine-protein phosphatase F (Homo sapiens, UniProt P10586). Put plainly: Inhibition of LAR (unknown origin).
In assay [8] the target is Tyrosine-protein phosphatase non-receptor type 6 (Homo sapiens, UniProt P29350). Put plainly: Inhibition of SHP1 (unknown origin).
Assay [9] addresses T6, Tyrosine-protein phosphatase non-receptor type 1 (Homo sapiens, UniProt P18031).
T6 sequence (P18031 whole entry): T1 sequence (whole entry)
Put plainly: Inhibition of PTP1B (unknown origin).

The structures appear in SMILES notation. Calls of active or inactive are those of the source. The rule behind the calls is not given here.

Receptor-type tyrosine-protein phosphatase F, sequence (P10586 whole entry): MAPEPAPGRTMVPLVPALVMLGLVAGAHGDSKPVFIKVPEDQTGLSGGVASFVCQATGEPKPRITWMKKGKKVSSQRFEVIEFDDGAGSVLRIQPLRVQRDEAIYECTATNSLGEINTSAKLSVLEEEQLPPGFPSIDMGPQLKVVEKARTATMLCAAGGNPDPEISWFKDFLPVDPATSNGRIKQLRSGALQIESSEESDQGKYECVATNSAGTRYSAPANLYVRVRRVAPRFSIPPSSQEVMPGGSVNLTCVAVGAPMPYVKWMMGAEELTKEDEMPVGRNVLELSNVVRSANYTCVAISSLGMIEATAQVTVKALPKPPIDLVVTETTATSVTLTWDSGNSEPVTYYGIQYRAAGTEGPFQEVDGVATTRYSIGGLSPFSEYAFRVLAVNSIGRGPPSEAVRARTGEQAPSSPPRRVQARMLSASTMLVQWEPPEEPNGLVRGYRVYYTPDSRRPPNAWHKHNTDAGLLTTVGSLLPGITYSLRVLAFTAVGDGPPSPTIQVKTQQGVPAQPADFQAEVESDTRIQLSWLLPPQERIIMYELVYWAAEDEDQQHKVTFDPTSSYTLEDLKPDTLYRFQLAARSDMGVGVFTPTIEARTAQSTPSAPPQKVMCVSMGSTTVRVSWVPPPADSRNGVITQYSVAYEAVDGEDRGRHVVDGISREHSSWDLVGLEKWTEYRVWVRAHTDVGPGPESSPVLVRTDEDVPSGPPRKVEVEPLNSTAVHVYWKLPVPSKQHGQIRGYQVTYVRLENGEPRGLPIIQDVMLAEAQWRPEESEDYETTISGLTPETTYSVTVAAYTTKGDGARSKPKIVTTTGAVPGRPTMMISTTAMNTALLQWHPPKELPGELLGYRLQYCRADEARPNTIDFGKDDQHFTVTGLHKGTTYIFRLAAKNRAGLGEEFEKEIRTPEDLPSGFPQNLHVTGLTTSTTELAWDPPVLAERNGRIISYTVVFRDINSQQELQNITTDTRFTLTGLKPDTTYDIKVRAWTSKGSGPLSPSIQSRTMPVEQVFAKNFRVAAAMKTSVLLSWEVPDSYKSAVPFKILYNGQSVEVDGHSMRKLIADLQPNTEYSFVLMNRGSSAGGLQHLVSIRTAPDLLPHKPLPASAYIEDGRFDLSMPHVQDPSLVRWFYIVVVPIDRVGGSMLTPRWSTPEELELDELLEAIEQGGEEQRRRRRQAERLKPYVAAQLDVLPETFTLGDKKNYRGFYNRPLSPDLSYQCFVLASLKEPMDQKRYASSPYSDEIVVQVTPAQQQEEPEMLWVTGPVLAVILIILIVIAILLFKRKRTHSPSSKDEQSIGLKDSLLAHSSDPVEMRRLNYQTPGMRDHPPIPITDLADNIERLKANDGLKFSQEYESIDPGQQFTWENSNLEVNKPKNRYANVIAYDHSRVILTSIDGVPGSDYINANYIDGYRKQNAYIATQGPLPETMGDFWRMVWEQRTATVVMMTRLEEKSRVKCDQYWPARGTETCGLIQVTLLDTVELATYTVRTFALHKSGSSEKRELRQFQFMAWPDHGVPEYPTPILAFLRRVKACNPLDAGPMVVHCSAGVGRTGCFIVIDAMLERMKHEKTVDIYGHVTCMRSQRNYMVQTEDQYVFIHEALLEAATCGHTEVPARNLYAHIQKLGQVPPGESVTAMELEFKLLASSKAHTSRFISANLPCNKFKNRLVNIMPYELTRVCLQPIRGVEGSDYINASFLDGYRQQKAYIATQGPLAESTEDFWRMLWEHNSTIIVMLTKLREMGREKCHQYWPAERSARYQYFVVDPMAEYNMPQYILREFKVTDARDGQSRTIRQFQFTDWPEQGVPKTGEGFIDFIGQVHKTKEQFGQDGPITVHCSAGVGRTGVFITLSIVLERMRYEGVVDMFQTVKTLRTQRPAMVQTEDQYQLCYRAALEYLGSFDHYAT
Tyrosine-protein phosphatase non-receptor type 6, sequence (P29350 whole entry): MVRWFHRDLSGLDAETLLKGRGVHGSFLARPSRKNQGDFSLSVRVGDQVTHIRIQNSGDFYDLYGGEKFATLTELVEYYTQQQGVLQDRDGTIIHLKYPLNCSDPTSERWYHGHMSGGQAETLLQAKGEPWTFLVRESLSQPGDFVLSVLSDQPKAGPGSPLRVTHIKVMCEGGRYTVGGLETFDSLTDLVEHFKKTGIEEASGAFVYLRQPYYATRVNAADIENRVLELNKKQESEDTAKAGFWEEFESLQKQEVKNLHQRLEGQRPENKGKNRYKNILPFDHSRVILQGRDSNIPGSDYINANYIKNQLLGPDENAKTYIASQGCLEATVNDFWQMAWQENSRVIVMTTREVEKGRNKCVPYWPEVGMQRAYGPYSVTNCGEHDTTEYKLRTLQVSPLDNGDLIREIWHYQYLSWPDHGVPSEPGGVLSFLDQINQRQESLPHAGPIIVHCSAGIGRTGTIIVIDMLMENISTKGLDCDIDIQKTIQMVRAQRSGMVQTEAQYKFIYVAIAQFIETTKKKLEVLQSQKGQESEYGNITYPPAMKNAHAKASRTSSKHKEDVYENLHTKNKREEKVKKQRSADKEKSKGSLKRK

Turning to `O=C(Nc1nnc(-c2ccc(Oc3ccc([N+](=O)[O-])cc3[N+](=O)[O-])cc2)s1)c1cccc([N+](=O)[O-])c1`, the figures for the inhibition in assay [1] and in assay [2] were 85.6% and 99.2%, respectively. The IC50 (commonly the concentration needed to halve the response being measured) in assay [3] is 2520 nM; in assay [4], “Not Active”; in assay [6], “Not Active”; in [7], “Not Active”; in assay [8], “Not Active”; in assay [9], 2670 nM. Besides, the inhibition (commonly the drop in the measured response relative to a control, in per cent) in [5] is “Active”.

The values are drawn from ChEMBL document CHEMBL3352415, “Synthesis and biological evaluation of novel thiadiazole amides as potent Cdc25B and PTP1B inhibitors” (Bioorg Med Chem Lett, 2014).
